Measurements taken from the NIST ThermoML archive (doi:10.1016/j.jct.2008.01.008).

Key:
[1] = 298.15 K, 101.33 kPa, Liquid; for viscosity: Capillary tube (Ostwald / Ubbelohde) method; for speed of sound: Sing-around technique in a fixed-path interferometer
[2] = xn = mol fraction of the nth substance listed; settings: 298.15 K, 101 kPa, Liquid; for viscosity: Capillary tube (Ostwald / Ubbelohde) method; for speed of sound: Sing-around technique in a fixed-path interferometer

CCCCCO [pentan-1-ol]
[1]
Settings | mass density [kg/m3] | speed of sound [m/s] | viscosity [mPa·s]
– | 811.001 | 1276 | 3.495

CO [methanol]
[1]
Settings | mass density [kg/m3] | speed of sound [m/s] | viscosity [mPa·s]
– | 786.548 | 1102.6 | 0.5444

CCCO [propan-1-ol]
[1]
Settings | mass density [kg/m3] | speed of sound [m/s] | viscosity [mPa·s]
– | 799.666 | 1206.5 | 1.959

COCC(C)OCC(C)OC (centres undefined) [2-methoxy-1-(2-methoxy-1-methylethoxy)propane]
[1]
Settings | mass density [kg/m3] | speed of sound [m/s] | viscosity [mPa·s]
– | 898.566 | 1205 | 0.9926

CCCCCCCO [heptan-1-ol]
[1]
Settings | mass density [kg/m3] | speed of sound [m/s] | viscosity [mPa·s]
– | 818.851 | 1327.4 | 5.886

COCC(C)OCC(C)OC (centres undefined) [2-methoxy-1-(2-methoxy-1-methylethoxy)propane] + CCCO
[2]
Settings | mass density [kg/m3] | speed of sound [m/s] | viscosity [mPa·s]
x1 = 0.0008 | – | – | 1.955
x1 = 0.0061 | – | – | 1.928
x1 = 0.0186 | – | – | 1.866
x1 = 0.0409 | – | – | 1.775
x1 = 0.0653 | 815.198 | 1210.9 | –
x1 = 0.0666 | – | – | 1.678
x1 = 0.0903 | – | – | 1.599
x1 = 0.1089 | 824.018 | 1212.8 | –
x1 = 0.1309 | – | – | 1.494
x1 = 0.1451 | 830.582 | 1214 | –
x1 = 0.1846 | – | – | 1.382
x1 = 0.2124 | 841.11 | 1215.2 | –
x1 = 0.267 | – | – | 1.264
x1 = 0.2694 | 848.766 | 1216 | –
x1 = 0.3041 | 852.935 | 1215.8 | –
x1 = 0.3136 | – | – | 1.211
x1 = 0.3359 | 856.509 | 1215.6 | –
x1 = 0.345 | – | – | 1.184
x1 = 0.3718 | – | – | 1.164
x1 = 0.3913 | 862.204 | 1215.6 | –
x1 = 0.4516 | – | – | 1.112
x1 = 0.4561 | 868.154 | 1215.4 | –
x1 = 0.502 | 872.013 | 1215.3 | –
x1 = 0.5198 | – | – | 1.081
x1 = 0.5464 | 875.439 | 1214.6 | –
x1 = 0.5625 | – | – | 1.066
x1 = 0.6111 | – | – | 1.05
x1 = 0.6139 | 880.179 | 1213.9 | –
x1 = 0.6459 | – | – | 1.043
x1 = 0.6513 | 882.571 | 1213.2 | –
x1 = 0.708 | 885.911 | 1212.5 | –
x1 = 0.7346 | – | – | 1.021
x1 = 0.7572 | 888.492 | 1211.4 | –
x1 = 0.7703 | – | – | 1.012
x1 = 0.8098 | 891.002 | 1210.3 | –
x1 = 0.8317 | – | – | 1.005
x1 = 0.8457 | 892.536 | 1209.5 | –
x1 = 0.8591 | – | – | 1.002
x1 = 0.9067 | 894.986 | 1207.9 | –
x1 = 0.9511 | – | – | 0.9968
x1 = 0.9576 | 896.939 | 1206.4 | –
x1 = 0.9746 | 897.584 | 1206.1 | –
x1 = 0.9753 | – | – | 0.993
x1 = 0.9915 | – | – | 0.9927
